Laboratory results: the supplement of paper PMC11208160

test: recombinant UMI read abundance after kanamycin selection (control-corrected) (log10(CPM+1)); higher = more efficient recombination; extreme values may be limits of the assay; sequences stand for … in AGTGCAGAGAAAATCGGCCAGTTTTCTCTGCCTGCAGTCCGCATGCCGTGGGACCCCTTGGGTTCTAACCTGTTGCCTAGATTTATGCAGCGGACTGCCTTTCTCCCAAAGTGATAAACCGG…AGGTTGGTTTCACT; site = the 11-nt donor
Method in brief: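 Reported values are log10(CPM+1) from a pooled Escherichia coli screen of donor and donor-binding-loop pairs for the IS621 bridge recombinase. Selection used IPTG (0.07 mM) plus kanamycin, against unselected plating, each in two replicates. Recombinant UMIs were amplified across the donor–target junction, sequenced, converted to CPM, averaged over replicates and scaled by control-derived factors.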
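Also: IS621 bridge recombinase in Escherichia coli cells against a fixed T5 target plasmid.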

Row | Sequence | recombinant UMI read abundance (log10)
1 | CTAGTATCATGGACCGGTTTTCCCGGTAATCCGTATTTGAC (site CTGGTTTCTGT) | 0
2 | CTAGTATCATGGACCGGTTTTCCCGGTAATCCGTATTTGAC (site CTTGGATCTGT) | 0
3 | CTAGTATCATGGACCGGTTTTCCCGGTAATCCGTATTTGAC (site CTTGTACCTGT) | 0.169
4 | CTAGTATCATGGACCGGTTTTCCCGGTAATCCGTATTTGAC (site CTTGTATCTAT) | 0
5 | CTAGTATCATGGACCGGTTTTCCCGGTAATCCGTATTTGAC (site CTTGTATCTGC) | 0
6 | CTAGTATCATGGACCGGTTTTCCCGGTAATCCGTATTTGAC (site CTTGTATCTGT) | 1.57
7 | CTAGTATCATGGACCGGTTTTCCCGGTAATCCGTATTTGAC (site CTTGTGTCTGT) | 0
8 | CTAGTATCATGGACCGGTTTTCCCGGTAATCCGTATTTGAC (site CTTTTATCTGT) | 1
9 | CTAGTATCATGGACCGGTTTTCCCGGTAATCCGTATTTGAC (site GGAGTATCTGT) | 2.07
10 | CTAGTATCATGGACCGGTTTTCCCGGTAATCCGTATTTGAC (site GTAGGATCTGT) | 0.00691
11 | CTAGTATCATGGACCGGTTTTCCCGGTAATCCGTATTTGAC (site GTAGTACCTGT) | 0
12 | CTAGTATCATGGACCGGTTTTCCCGGTAATCCGTATTTGAC (site GTAGTATCTAT) | 0
13 | CTAGTATCATGGACCGGTTTTCCCGGTAATCCGTATTTGAC (site GTAGTATCTGC) | 0
14 | CTAGTATCATGGACCGGTTTTCCCGGTAATCCGTATTTGAC (site GTAGTATCTGT) | 0
15 | CTAGTATCATGGACCGGTTTTCCCGGTAATCCGTATTTGAC (site GTAGTGTCTGT) | 0.0419
16 | CTAGTATCATGGACCGGTTTTCCCGGTAATCCGTATTTGAC (site GTATTATCTGT) | 0
17 | CTAGTATCATGGACCGGTTTTCCCGGTAATCCGTATTTGAC (site GTTGTATCTGT) | 0.0569
18 | CTAGTATCATGGACCGGTTTTCCCGGTAATCCGTATTTGAC (site TAAGTATCTGT) | 0
19 | CTAGTATCATGGACCGGTTTTCCCGGTAATCCGTATTTGAC (site TTAATATCTGT) | 0
20 | CTAGTATCATGGACCGGTTTTCCCGGTAATCCGTATTTGAC (site TTAGAATCTGT) | 0
21 | CTAGTATCATGGACCGGTTTTCCCGGTAATCCGTATTTGAC (site TTAGTAACTGT) | 0
22 | CTAGTATCATGGACCGGTTTTCCCGGTAATCCGTATTTGAC (site TTAGTATCTCT) | 0
23 | CTAGTATCATGGACCGGTTTTCCCGGTAATCCGTATTTGAC (site TTAGTATCTGA) | 0

Row | Sequence | recombinant UMI read abundance (log10)
24 | CTAGTATCATGGACCGGTTTTCCCGGTAATCCGTATTTGAC (site TTAGTATCTGT) | 1.71
25 | CTAGTATCATGGACCGGTTTTCCCGGTAATCCGTATTTGAC (site TTAGTCTCTGT) | 0
26 | CTAGTATCATGGACCGGTTTTCCCGGTAATCCGTATTTGAC (site TTCGTATCTGT) | 0
27 | CTAGTATCATGGACCGGTTTTCCCGGTAATCCGTATTTGAT (site CTAGTATCTAT) | 2.21
28 | CTAGTATCATGGACCGGTTTTCCCGGTAATCCGTATTTGAT (site CTAGTATCTCT) | 0.557
29 | CTAGTATCATGGACCGGTTTTCCCGGTAATCCGTATTTGAT (site CTAGTATCTGT) | 1.31
30 | CTAGTATCATGGACCGGTTTTCCCGGTAATCCGTATTTGAT (site CTAGTATCTTT) | 1.07
31 | CTAGTATCATGGACCGGTTTTCCCGGTAATCCGTATTTGCA (site CTAGTATCTGT) | 0.00642
32 | CTAGTATCATGGACCGGTTTTCCCGGTAATCCGTATTTGCA (site CTAGTATCTTG) | 2.72
33 | CTAGTCCCATGGACCGGTTTTCCCGGTAATCCGTATTTGCT (site CTAGTCCCTAG) | 1.79
34 | CTAGTCCCATGGACCGGTTTTCCCGGTAATCCGTATTTGGA (site CTAGTCCCTTC) | 0.281
35 | CTAGTCGCATGGACCGGTTTTCCCGGTAATCCGTATTTGCG (site ATAGTCGCTCG) | 0.00637
36 | CTAGTCGCATGGACCGGTTTTCCCGGTAATCCGTATTTGCG (site CTAGTCGCTCG) | 0.966
37 | CTAGTCGCATGGACCGGTTTTCCCGGTAATCCGTATTTGCG (site GTAGTCGCTCG) | 0
38 | CTAGTCGCATGGACCGGTTTTCCCGGTAATCCGTATTTGCG (site TTAGTCGCTCG) | 0.0191
39 | CTAGTCTCATGGACCGGTTTTCCCGGTAATCCGTATTTGAC (site CTAGTATCTGT) | 0.627
40 | CTAGTCTCATGGACCGGTTTTCCCGGTAATCCGTATTTGAC (site CTAGTCTCTGT) | 2.93
41 | CTAGTCTCATGGACCGGTTTTCCCGGTAATCCGTATTTGAC (site CTAGTGTCTGT) | 0
42 | CTAGTCTCATGGACCGGTTTTCCCGGTAATCCGTATTTGAC (site CTAGTTTCTGT) | 0.799
43 | CTAGTGTCATGGACCGGTTTTCCCGGTAATCCGTATTTGAC (site CTAGTATCTGT) | 1.23
44 | CTAGTGTCATGGACCGGTTTTCCCGGTAATCCGTATTTGAC (site CTAGTCTCTGT) | 0
45 | CTAGTGTCATGGACCGGTTTTCCCGGTAATCCGTATTTGAC (site CTAGTGTCTGT) | 0
46 | CTAGTGTCATGGACCGGTTTTCCCGGTAATCCGTATTTGAC (site CTAGTTTCTGT) | 0

Row | Sequence | recombinant UMI read abundance (log10)
47 | CTAGTTACATGGACCGGTTTTCCCGGTAATCCGTATTTGTC (site CTAGTTACTGA) | 2.57
48 | CTATAAACATGGACCGGTTTTCCCGGTAATCCGTATTTGGA (site CTATAAACTTC) | 2.34
49 | CTATATGCATGGACCGGTTTTCCCGGTAATCCGTATTTGTA (site CTATATGCTTA) | 2.55
50 | CTATCATCATGGACCGGTTTTCCCGGTAATCCGTATTTGCG (site CGATCATCTAG) | 0
51 | CTATCATCATGGACCGGTTTTCCCGGTAATCCGTATTTGCG (site CTATCATCTCG) | 1.87
52 | CTATGATCATGGACCGGTTTTCCCGGTAATCCGTATTTGCG (site CTATGATCTCG) | 3.16
53 | CTATTACCATGGACCGGTTTTCCCGGTAATCCGTATTTGAC (site CTAGTATCTGT) | 0
54 | CTATTACCATGGACCGGTTTTCCCGGTAATCCGTATTTGAC (site CTATTACCTGT) | 0
55 | CTATTCCCATGGACCGGTTTTCCCGGTAATCCGTATTTGTT (site CTATTCCCTAA) | 1.42
56 | CTCAAGACATGGACCGGTTTTCCCGGTAATCCGTATTTGGG (site CTCAAGACTCC) | 0
57 | CTCATATCATGGACCGGTTTTCCCGGTAATCCGTATTTGTC (site CACATATCTGA) | 0.65
58 | CTCATATCATGGACCGGTTTTCCCGGTAATCCGTATTTGTC (site CCCATATCTGA) | 0.718
59 | CTCATATCATGGACCGGTTTTCCCGGTAATCCGTATTTGTC (site CGCATATCTGA) | 0
60 | CTCATATCATGGACCGGTTTTCCCGGTAATCCGTATTTGTC (site CTCATATCTGA) | 1.5
61 | CTCATCGCATGGACCGGTTTTCCCGGTAATCCGTATTTGCC (site CTCATCGCTGG) | 0.346
62 | CTCCACACATGGACCGGTTTTCCCGGTAATCCGTATTTGGG (site CTCCACACTCC) | 0.0377
63 | CTCCAGCCATGGACCGGTTTTCCCGGTAATCCGTATTTGAG (site CTCCAGCCTCT) | 0.0271
64 | CTCCCCACATGGACCGGTTTTCCCGGTAATCCGTATTTGAG (site CTCCCAACTCT) | 0.00953
65 | CTCCCCACATGGACCGGTTTTCCCGGTAATCCGTATTTGAG (site CTCCCCACTCT) | 0.891
66 | CTCCCCACATGGACCGGTTTTCCCGGTAATCCGTATTTGAG (site CTCCCGACTCT) | 0.0121
67 | CTCCCCACATGGACCGGTTTTCCCGGTAATCCGTATTTGAG (site CTCCCTACTCT) | 0
68 | CTCCCTACATGGACCGGTTTTCCCGGTAATCCGTATTTGCG (site CTCCCTACTCA) | 0.397
